Results from US9409905B2, “Antibacterial compounds and methods for use” (PTC THERAPEUTICS, INC., priority 2011, dated 2016).
≈ marks a conversion by molar mass, not a printed value.

Assays:
[1] = tested on: Escherichia coli (E. coli) BAS849; test: Antibacterial activity, microbroth dilution MIC (Table 1); type: cell-based; details: microbroth dilution, super sensitive Gram-negative E. coli BAS849, read-out: MIC, BAS849
How it was run: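 Potency is reported as minimum inhibitory concentration in μg/mL, determined by broth microdilution as the lowest level of compound that stops growth visible to the eye.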

[2] = tested on: Staphylococcus aureus (S. aureus) 29213; test: as above; type: cell-based; details: microbroth dilution, Gram-positive S. aureus 29213, read-out: MIC, 29213
How it was run: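 MIC (μg/mL) is taken as the lowest concentration with no macroscopically visible growth. Strains tested by microbroth dilution: Gram-positive S. aureus 29213, control Gram-negative E. coli 25922, and super-sensitive E. coli BAS849.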

[3] = tested on: E. coli 25922; test: as above; type: cell-based, Escherichia coli; details: Escherichia coli; microbroth dilution; control Gram-negative E. coli 25922 strain; read-out: MIC, 25922
How it was run: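 Values are MICs (μg/mL): the smallest drug amount at which macroscopically visible bacterial growth is absent under assay conditions, from a microdilution method in broth.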

[4] = tested on: E. coli LZ3111; test: Antibacterial activity, MIC, quinolone resistant strain (Table 2); type: cell-based; details: Escherichia coli, LZ3111, read-out: MIC LZ3111
How it was run: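 Strain carries mutations conferring high-level quinolone resistance; tested by microbroth dilution, MIC recorded in μg/mL as lowest concentration preventing visible growth.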

[5] = tested on: Acinetobacter baumannii (A. baumannii) BAA747; test: Antibacterial activity, MIC (Table 4); type: cell-based; details: A. baumannii BAA747, read-out: MIC, BAA747
How it was run: (§1)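 MIC in μg/mL by microbroth dilution, scored as the lowest level that suppresses visible growth.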

[6] = tested on: Klebsiella pneumoniae (K. pneumoniae) 35657; test: Antibacterial activity, MIC (Table 4); type: cell-based; details: K. pneumoniae 35657, read-out: MIC, 35657
How it was run: as §1

[7] = tested on: A. baumannii MXX2240; test: Antibacterial activity, MIC, resistant strain (Table 4); type: cell-based; details: Acinetobacter baumannii, MXX2240; resistant A. baumannii MMX2240, multi-drug resistant clinical isolate; read-out: MIC, MMX2240
How it was run: as §1

[8] = tested on: K. pneumoniae MXX1232; test: as above; type: cell-based; details: Klebsiella pneumoniae, MXX1232; resistant K. pneumoniae MMX1232, multi-drug resistant clinical isolate; read-out: MIC, MMX1232
How it was run: as §1

[9] = tested on: Pseudomonas aeruginosa (P. aeruginosa) 27853; test: Antibacterial activity, MIC (Table 5); type: cell-based; details: P. aeruginosa 27853, read-out: MIC, 27853
How it was run: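 Compounds are serially diluted in broth and inoculated with the organism. Growth is then inspected macroscopically, and the lowest concentration showing none is taken as the MIC (μg/mL).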

SMILES	MIC [1]	MIC [2]	MIC [3]	MIC [4]	MIC [5]	MIC [6]	MIC [7]	MIC [8]	MIC [9]
CCc1ccc2[nH]c(-c3[nH]c(=O)c(C(=O)O)c(O)c3CC)cc2c1 [Cpd 381, 5-ethyl-6-(5-ethyl-1H-indol-2-yl)-4-hydroxy-2-oxo-1,2-dihydropyridine-3-carboxylic acid]	< 1 µg/mL	3.5 to 12.5 µg/mL (≈ 10.7 to 38.3 µM)	12.5 to 150 µg/mL (≈ 38.3 to 460 µM)	12.5 to 150 µg/mL (≈ 38.3 to 460 µM)	12.5 to 150 µg/mL (≈ 38.3 to 460 µM)	12.5 to 150 µg/mL (≈ 38.3 to 460 µM)	12.5 to 150 µg/mL (≈ 38.3 to 460 µM)	12.5 to 150 µg/mL (≈ 38.3 to 460 µM)	12.5 to 150 µg/mL (≈ 38.3 to 460 µM)
CCc1ccc2cc(-c3[nH]c(=O)c(C(=O)O)c(O)c3CC)[nH]c2c1 [Cpd 382, 5-ethyl-6-(6-ethyl-1H-indol-2-yl)-4-hydroxy-2-oxo-1,2-dihydropyridine-3-carboxylic acid]	< 1 µg/mL	3.5 to 12.5 µg/mL (≈ 10.7 to 38.3 µM)	12.5 to 150 µg/mL (≈ 38.3 to 460 µM)	12.5 to 150 µg/mL (≈ 38.3 to 460 µM)	12.5 to 150 µg/mL (≈ 38.3 to 460 µM)	12.5 to 150 µg/mL (≈ 38.3 to 460 µM)	12.5 to 150 µg/mL (≈ 38.3 to 460 µM)	12.5 to 150 µg/mL (≈ 38.3 to 460 µM)	12.5 to 150 µg/mL (≈ 38.3 to 460 µM)
CCCc1ccc2[nH]c(-c3[nH]c(=O)c(C(=O)O)c(O)c3CC)cc2c1 [Cpd 383, 5-ethyl-4-hydroxy-2-oxo-6-(5-propyl-1H-indol-2-yl)-1,2-dihydropyridine-3-carboxylic acid]	< 1 µg/mL	3.5 to 12.5 µg/mL (≈ 10.3 to 36.7 µM)	12.5 to 150 µg/mL (≈ 36.7 to 441 µM)	12.5 to 150 µg/mL (≈ 36.7 to 441 µM)	12.5 to 150 µg/mL (≈ 36.7 to 441 µM)	12.5 to 150 µg/mL (≈ 36.7 to 441 µM)	12.5 to 150 µg/mL (≈ 36.7 to 441 µM)	12.5 to 150 µg/mL (≈ 36.7 to 441 µM)	12.5 to 150 µg/mL (≈ 36.7 to 441 µM)
CCCc1ccc2cc(-c3[nH]c(=O)c(C(=O)O)c(O)c3CC)[nH]c2c1 [Cpd 384, 5-ethyl-4-hydroxy-2-oxo-6-(6-propyl-1H-indol-2-yl)-1,2-dihydropyridine-3-carboxylic acid]	< 1 µg/mL	12.5 to 150 µg/mL (≈ 36.7 to 441 µM)	12.5 to 150 µg/mL (≈ 36.7 to 441 µM)	12.5 to 150 µg/mL (≈ 36.7 to 441 µM)	12.5 to 150 µg/mL (≈ 36.7 to 441 µM)	12.5 to 150 µg/mL (≈ 36.7 to 441 µM)	12.5 to 150 µg/mL (≈ 36.7 to 441 µM)	12.5 to 150 µg/mL (≈ 36.7 to 441 µM)	12.5 to 150 µg/mL (≈ 36.7 to 441 µM)
CCc1c(-c2cc3cc(F)c(C)cc3[nH]2)[nH]c(=O)c(C(=O)O)c1O [Cpd 385, 5-ethyl-6-(5-fluoro-6-methyl-1H-indol-2-yl)-4-hydroxy-2-oxo-1,2-dihydropyridine-3-carboxylic acid]	< 1 µg/mL	3.5 to 12.5 µg/mL (≈ 10.6 to 37.8 µM)	12.5 to 150 µg/mL (≈ 37.8 to 454 µM)	12.5 to 150 µg/mL (≈ 37.8 to 454 µM)	12.5 to 150 µg/mL (≈ 37.8 to 454 µM)	12.5 to 150 µg/mL (≈ 37.8 to 454 µM)	12.5 to 150 µg/mL (≈ 37.8 to 454 µM)	12.5 to 150 µg/mL (≈ 37.8 to 454 µM)	12.5 to 150 µg/mL (≈ 37.8 to 454 µM)
CCc1ccc2[nH]c(-c3[nH]c(=O)c(C(=O)O)c(O)c3C)cc2c1 [Cpd 386, 6-(5-ethyl-1H-indol-2-yl)-4-hydroxy-5-methyl-2-oxo-1,2-dihydropyridine-3-carboxylic acid]	3.5 to 12.5 µg/mL (≈ 11.2 to 40 µM)	12.5 to 150 µg/mL (≈ 40 to 480 µM)	12.5 to 150 µg/mL (≈ 40 to 480 µM)	12.5 to 150 µg/mL (≈ 40 to 480 µM)	12.5 to 150 µg/mL (≈ 40 to 480 µM)	12.5 to 150 µg/mL (≈ 40 to 480 µM)	12.5 to 150 µg/mL (≈ 40 to 480 µM)	12.5 to 150 µg/mL (≈ 40 to 480 µM)	12.5 to 150 µg/mL (≈ 40 to 480 µM)
CCc1ccc2cc(-c3[nH]c(=O)c(C(=O)O)c(O)c3C)[nH]c2c1 [Cpd 387, 6-(6-ethyl-1H-indol-2-yl)-4-hydroxy-5-methyl-2-oxo-1,2-dihydropyridine-3-carboxylic acid]	1 to 3.5 µg/mL (≈ 3.2 to 11.2 µM)	12.5 to 150 µg/mL (≈ 40 to 480 µM)	12.5 to 150 µg/mL (≈ 40 to 480 µM)	12.5 to 150 µg/mL (≈ 40 to 480 µM)	12.5 to 150 µg/mL (≈ 40 to 480 µM)	12.5 to 150 µg/mL (≈ 40 to 480 µM)	12.5 to 150 µg/mL (≈ 40 to 480 µM)	12.5 to 150 µg/mL (≈ 40 to 480 µM)	12.5 to 150 µg/mL (≈ 40 to 480 µM)
Cc1cc2[nH]c(-c3[nH]c(=O)c(C(=O)O)c(O)c3C)cc2cc1F [Cpd 388, 6-(5-fluoro-6-methyl-1H-indol-2-yl)-4-hydroxy-5-methyl-2-oxo-1,2-dihydropyridine-3-carboxylic acid]	3.5 to 12.5 µg/mL (≈ 11.1 to 39.5 µM)	12.5 to 150 µg/mL (≈ 39.5 to 474 µM)	12.5 to 150 µg/mL (≈ 39.5 to 474 µM)	12.5 to 150 µg/mL (≈ 39.5 to 474 µM)	12.5 to 150 µg/mL (≈ 39.5 to 474 µM)	12.5 to 150 µg/mL (≈ 39.5 to 474 µM)	12.5 to 150 µg/mL (≈ 39.5 to 474 µM)	12.5 to 150 µg/mL (≈ 39.5 to 474 µM)	12.5 to 150 µg/mL (≈ 39.5 to 474 µM)
